Experimental data from ChEMBL document CHEMBL1201862, “PubChem BioAssay data set” (2004).
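In this assay, cells in 96-well plates receive the compound at five concentrations for 48 hours. Endpoints are linearly interpolated between the surrounding concentrations. GI50: concentration for 50% inhibition of growth.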 Activity calls are given as the source filed them. Cut-off read from the data, not from the text of the source: active = GI50 up to about 1.1 µM and inactive = higher.

How the values were obtained:
Assay in all cases: NCI tumour cell line growth inhibition, 48 h
786-0 = tested on: 786-0
A498 = tested on: A498
A549 = tested on: A549
ACHN = tested on: ACHN
BT-549 = tested on: BT-549
CAKI-1 = tested on: CAKI-1
CCRF-CEM = tested on: CCRF-CEM
COLO 205 = tested on: COLO 205
DU-145 = tested on: DU-145
EKVX = tested on: EKVX
HCC 2998 = tested on: HCC 2998
HCT-116 = tested on: HCT-116
HCT-15 = tested on: HCT-15
HL-60 = tested on: HL-60
HOP-62 = tested on: HOP-62
HOP-92 = tested on: HOP-92
HT-29 = tested on: HT-29
Hs-578T = tested on: Hs-578T
IGROV-1 = tested on: IGROV-1
K562 = tested on: K562
KM12 = tested on: KM12
LOX IMVI = tested on: LOX IMVI
M14 = tested on: M14
MCF7 = tested on: MCF7
MDA-MB-231 = tested on: MDA-MB-231
MDA-MB-435 = tested on: MDA-MB-435
MDA-N = tested on: MDA-N
MOLT-4 = tested on: MOLT-4
Malme-3M = tested on: Malme-3M
NCI-H226 = tested on: NCI-H226
NCI-H23 = tested on: NCI-H23
NCI-H522 = tested on: NCI-H522
NCI/ADR-RES = tested on: NCI/ADR-RES
OVCAR-3 = tested on: OVCAR-3
OVCAR-4 = tested on: OVCAR-4
OVCAR-5 = tested on: OVCAR-5
OVCAR-8 = tested on: OVCAR-8
PC-3 = tested on: PC-3
RPMI-8226 = tested on: RPMI-8226
RXF 393 = tested on: RXF 393
SF-268 = tested on: SF-268
SF-295 = tested on: SF-295
SF-539 = tested on: SF-539
SK-MEL-28 = tested on: SK-MEL-28
SK-MEL-2 = tested on: SK-MEL-2
SK-MEL-5 = tested on: SK-MEL-5
SK-OV-3 = tested on: SK-OV-3
SN12C = tested on: SN12C
SNB-19 = tested on: SNB-19
SNB-75 = tested on: SNB-75
SR = tested on: SR
SW-620 = tested on: SW-620
T47D = tested on: T47D
TK-10 = tested on: TK-10
U-251 = tested on: U-251
UACC-257 = tested on: UACC-257
UACC-62 = tested on: UACC-62
UO-31 = tested on: UO-31
NCI-H460 = tested on: NCI-H460

SMILES: COc1ccc(N2C(N)=C(C#N)C(C#N)(C#N)C2c2cccc([N+](=O)[O-])c2)cc1 (centres undefined)
- GI50 (786-0): 14.5 µM (inactive)
- GI50 (A498): 16.1 µM (inactive)
- GI50 (A549): 18.3 µM (inactive)
- GI50 (ACHN): 14.2 µM (inactive)
- GI50 (BT-549): 17.9 µM (inactive)
- GI50 (CAKI-1): 2.61 µM (inactive)
- GI50 (CCRF-CEM): 3.05 µM (inactive)
- GI50 (COLO 205): 10.7 µM (inactive)
- GI50 (DU-145): 17.8 µM (inactive)
- GI50 (EKVX): 20.7 µM (inactive)
- GI50 (HCC 2998): 16.9 µM (inactive)
- GI50 (HCT-116): 9.91 µM (inactive)
- GI50 (HCT-15): 15.5 µM
- GI50 (HL-60): 3.03 µM (inactive)
- GI50 (HOP-62): 16.3 µM (inactive)
- GI50 (HOP-92): 12.9 µM (inactive)
- GI50 (HT-29): 13.9 µM (inactive)
- GI50 (Hs-578T): 24 µM (inactive)
- GI50 (IGROV-1): 14.7 µM (inactive)
- GI50 (K562): 2.92 µM (inactive)
- GI50 (KM12): 18.9 µM (inactive)
- GI50 (LOX IMVI): 13.5 µM (inactive)
- GI50 (M14): 17.3 µM (inactive)
- GI50 (MCF7): 19.9 µM (inactive)
- GI50 (MDA-MB-231): 14.9 µM (inactive)
- GI50 (MDA-MB-435): 16.9 µM (inactive)
- GI50 (MDA-N): 17.3 µM (inactive)
- GI50 (MOLT-4): 3.78 µM (inactive)
- GI50 (Malme-3M): 6.73 µM (inactive)
- GI50 (NCI-H226): 19.8 µM (inactive)
- GI50 (NCI-H23): 15.5 µM (inactive)
- GI50 (NCI-H522): 7.14 µM (inactive)
- GI50 (NCI/ADR-RES): 21.1 µM (inactive)
- GI50 (OVCAR-3): 15.4 µM (inactive)
- GI50 (OVCAR-4): 17.7 µM (inactive)
- GI50 (OVCAR-5): 17.5 µM (inactive)
- GI50 (OVCAR-8): 17.9 µM (inactive)
- GI50 (PC-3): 17.1 µM (inactive)
- GI50 (RPMI-8226): 11.6 µM (inactive)
- GI50 (RXF 393): 9.23 µM (inactive)
- GI50 (SF-268): 20.6 µM (inactive)
- GI50 (SF-295): 19.1 µM (inactive)
- GI50 (SF-539): 14.7 µM (inactive)
- GI50 (SK-MEL-28): 8.57 µM (inactive)
- GI50 (SK-MEL-2): 18.1 µM (inactive)
- GI50 (SK-MEL-5): 13.4 µM (inactive)
- GI50 (SK-OV-3): 20.2 µM (inactive)
- GI50 (SN12C): 16.1 µM (inactive)
- GI50 (SNB-19): 17.9 µM (inactive)
- GI50 (SNB-75): 18.8 µM (inactive)
- GI50 (SR): 8.47 µM (inactive)
- GI50 (SW-620): 11.2 µM (inactive)
- GI50 (T47D): 12.6 µM (inactive)
- GI50 (TK-10): 16.6 µM (inactive)
- GI50 (U-251): 17.4 µM (inactive)
- GI50 (UACC-257): 13.7 µM (inactive)
- GI50 (UACC-62): 15.9 µM (inactive)
- GI50 (UO-31): 17.3 µM (inactive)

SMILES: CCOC(=O)c1nc2c3c(ncn2n1)Oc1c(c(-c2ccccc2)nn1-c1ccccc1)C3c1ccc(Cl)cc1 (centres undefined)
- GI50 (786-0): > 100 µM (inactive)
- GI50 (A498): > 100 µM (inactive)
- GI50 (A549): > 100 µM (inactive)
- GI50 (ACHN): > 100 µM (inactive)
- GI50 (BT-549): > 100 µM (inactive)
- GI50 (CAKI-1): > 100 µM (inactive)
- GI50 (CCRF-CEM): > 100 µM (inactive)
- GI50 (COLO 205): > 100 µM (inactive)
- GI50 (DU-145): > 100 µM (inactive)
- GI50 (HCC 2998): > 100 µM (inactive)
- GI50 (HCT-116): > 100 µM (inactive)
- GI50 (HCT-15): > 100 µM
- GI50 (HL-60): > 100 µM (inactive)
- GI50 (HOP-62): > 100 µM (inactive)
- GI50 (HOP-92): > 100 µM (inactive)
- GI50 (HT-29): > 100 µM (inactive)
- GI50 (Hs-578T): > 100 µM (inactive)
- GI50 (K562): > 100 µM (inactive)
- GI50 (KM12): 15.1 µM (inactive)
- GI50 (LOX IMVI): > 100 µM (inactive)
- GI50 (M14): > 100 µM (inactive)
- GI50 (MCF7): > 100 µM (inactive)
- GI50 (MDA-MB-231): > 100 µM (inactive)
- GI50 (MDA-MB-435): > 100 µM (inactive)
- GI50 (MDA-N): > 100 µM (inactive)
- GI50 (Malme-3M): > 100 µM (inactive)
- GI50 (NCI-H226): > 100 µM (inactive)
- GI50 (NCI-H23): > 100 µM (inactive)
- GI50 (NCI-H460): > 100 µM (inactive)
- GI50 (NCI-H522): > 100 µM (inactive)
- GI50 (NCI/ADR-RES): > 100 µM (inactive)
- GI50 (OVCAR-3): > 100 µM (inactive)
- GI50 (OVCAR-4): > 100 µM (inactive)
- GI50 (OVCAR-5): > 100 µM (inactive)
- GI50 (OVCAR-8): > 100 µM (inactive)
- GI50 (PC-3): > 100 µM (inactive)
- GI50 (RPMI-8226): > 100 µM (inactive)
- GI50 (RXF 393): > 100 µM (inactive)
- GI50 (SF-268): > 100 µM (inactive)
- GI50 (SF-295): > 100 µM (inactive)
- GI50 (SF-539): > 100 µM (inactive)
- GI50 (SK-MEL-28): > 100 µM (inactive)
- GI50 (SK-MEL-2): > 100 µM (inactive)
- GI50 (SK-MEL-5): > 100 µM (inactive)
- GI50 (SK-OV-3): > 100 µM (inactive)
- GI50 (SN12C): > 100 µM (inactive)
- GI50 (SNB-19): > 100 µM (inactive)
- GI50 (SNB-75): > 100 µM (inactive)
- GI50 (SR): > 100 µM (inactive)
- GI50 (SW-620): > 100 µM (inactive)
- GI50 (T47D): > 100 µM (inactive)
- GI50 (TK-10): > 100 µM (inactive)
- GI50 (U-251): > 100 µM (inactive)
- GI50 (UACC-257): > 100 µM (inactive)
- GI50 (UACC-62): > 100 µM (inactive)
- GI50 (UO-31): > 100 µM (inactive)
